Columns and labels:
[1] = tested on: parasite kinase activity which phosphorylates Toxofilin; test: Kinase reaction on rToxofilin with tachyzoïte cytosolic fraction, with pharmacological inhibitors; assay type: biochemical, Toxoplasma gondii; details: inhibitors added 15 min before starting the kinase reaction: heparin 20 μg per ml, GTP 200 μM, DRB 100 μM, [γ32P] ATP, 30° C.
Method: Kinase reaction: 2 μg of immobilized rToxofilin on protein G-dynabeads were washed in kinase buffer before to be incubated with a tachyzoïte cytosolic fraction prepared in kinase buffer ([…]) and precleared on protein G-dynabeads. The reaction was started by adding 100 μM of Na2 ATP and 10 μCi of [γ^32P] ATP (3000 Ci/mmol, NEN life science product, Inc) (15 min, 30° C.). Unbound materials and unincorporated [γ^32P] ATP were washed out with 200 volumes of kinase buffer containing with TX-100 (0.5% vol/vol) followed by 100 volumes of kinase buffer. Toxofilin and bound proteins were eluted in SDS-PAGE sample buffer prior to electrophoresis and radioactivity scan (phosphoimager, Molecular Dynamics). Toxofilin phosphorylation was quantified using NIH Image Quant software.
To characterize the kinase activity responsible for Toxofilin phosphorylation, three types of experiments were carried out:
1) Pharmacological inhibitors such as heparin (20 μg per ml, Sigma), GTP (200 μM, Sigma), 5,6-dichloro-1-B-D-ribofuranosylbenzimidazole (100 μM, Calbiochem) or staurosporine (1 μM, Calbiochem) were added 15 min before starting the kinase reaction.

[2] = tested on: recombinant Toxofilin (r-Toxofilin) without GST
[3] = biological target: recombinant Toxofilin (r-Toxofilin) without GST; remark: listed apart in the source

| Molecule | inhibition of the parasite kinase activity which phosphorylates Toxofilin [1] | other results |
| --- | --- | --- |
| heparin [soluble heparin] | inhibited |  |
| OC[C@H]1O[C@@H](n2cnc3cc(Cl)c(Cl)cc32)[C@H](O)[C@@H]1O [DRB, 5,6-dichloro-1-B-D-ribofuranosylbenzimidazole] | inhibited |  |
| Nc1nc2c(ncn2[C@@H]2O[C@H](COP(=O)(O)OP(=O)(O)OP(=O)(O)O)[C@@H](O)[C@H]2O)c(=O)[nH]1 [GTP] | inhibited |  |
| Human casein kinase II |  | phosphorylation of Toxofilin [2]: Human casein kinase II works well at phosphorylating Toxofilin |
| Thioredoxin-Hispatch Tg PP2C (protein) MKSSAEIRRTMDVPPTIHVPLPPTSYPAFDAAIFTDIGGRKHQEDRFTLCPQLVPGRDDCAFFGVFDGTVGDFASENVKDLVVPQLISSPAWQEVTEMLRSDVPATEVDEKLPQLLDQAVDDMYKNADNELVKMCEQLNKDYASSTSVTAVLAKGFVAVGHLGDSRIAMGVETPNGLNCEFLTVDHKPDMPHEKLRIMRNGGSVEYLHNHNNKPFIRGGDFSFRKSRGEQPMQLQYSRALGGKDLKMYGLSNQPDVRVVRVTPQHRVMILATDGLWDVMFAAQAVEIAMQARQEGRNPAQALVEMTLAEQQSRNQSADNITAMTVFFKKTD |  | in vitro phosphatase assay on 32P-phosphorylated Toxofilin [3]: Toxofilin is a major substrate for type 2C phosphatase |

Source: patent US6949352B2, “Serine-threonine phosphatase protein of a parasitic organism of the Apicomplexa phylum, applications in therapeutics” (Centre National de la Recherche Scientifique (CNRS), priority 2001, dated 2005)
